# Assay: recombinant UMI read abundance after kanamycin selection (control-corrected) (log10(CPM+1)); higher = more efficient recombination; extreme values may be limits of the assay; sequences stand for … in AGTGCAGAGAAAATCGGCCAGTTTTCTCTGCCTGCAGTCCGCATGCCGTGGGACCCCTTGGGTTCTAACCTGTTGCCTAGATTTATGCAGCGGACTGCCTTTCTCCCAAAGTGATAAACCGG…AGGTTGGTTTCACT; site = the 11-nt donor
# In short: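 Values, expressed as log10(CPM+1), derive from recombinant UMI counts converted to CPM, averaged across replicates and scaled by control-derived factors. Plating was with IPTG (0.07 mM) plus kanamycin or unselected, two replicates each. The screen pooled donor and donor-binding-loop pairs for the IS621 bridge recombinase in Escherichia coli.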
# 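Also: IS621 bridge recombinase in Escherichia coli cells against a fixed T5 target plasmid.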
row,Sequence,recombinant UMI read abundance (log10)
1,GGCACGTCATGGACCGGTTTTCCCGGTAATCCGTATTTGTT (site GGTACGTCTAA),0.0192
2,GGCAGAGCATGGACCGGTTTTCCCGGTAATCCGTATTTGAG (site GGCAGAGCTCT),1.67
3,GGCCAAACATGGACCGGTTTTCCCGGTAATCCGTATTTGAC (site GGCCAAACTGT),1.73
4,GGCCACCCATGGACCGGTTTTCCCGGTAATCCGTATTTGTA (site GGCCACCCTAA),0.0187
5,GGCCACCCATGGACCGGTTTTCCCGGTAATCCGTATTTGTA (site GGCCACCCTCA),0.014
6,GGCCACCCATGGACCGGTTTTCCCGGTAATCCGTATTTGTA (site GGCCACCCTGA),0
7,GGCCACCCATGGACCGGTTTTCCCGGTAATCCGTATTTGTA (site GGCCACCCTTA),0.081
8,GGCCACCCATGGACCGGTTTTCCCGGTAATCCGTATTTGTG (site GGCCACCCTAA),0.00884
9,GGCCACCCATGGACCGGTTTTCCCGGTAATCCGTATTTGTG (site GGCCACCCTCA),0.00742
10,GGCCACCCATGGACCGGTTTTCCCGGTAATCCGTATTTGTG (site GGCCACCCTGA),0
11,GGCCACCCATGGACCGGTTTTCCCGGTAATCCGTATTTGTG (site GGCCACCCTTA),0.0265
12,GGCCACGCATGGACCGGTTTTCCCGGTAATCCGTATTTGTT (site GGCCACACTAA),0.148
13,GGCCACGCATGGACCGGTTTTCCCGGTAATCCGTATTTGTT (site GGCCACCCTAA),0.023
14,GGCCACGCATGGACCGGTTTTCCCGGTAATCCGTATTTGTT (site GGCCACGCTAA),0.96
15,GGCCACGCATGGACCGGTTTTCCCGGTAATCCGTATTTGTT (site GGCCACTCTAA),0.0156
16,GGCCATCCATGGACCGGTTTTCCCGGTAATCCGTATTTGAA (site GGCAATCCTTT),0.00447
17,GGCCATCCATGGACCGGTTTTCCCGGTAATCCGTATTTGAA (site GGCCATCCTTT),0.00888
18,GGCCATCCATGGACCGGTTTTCCCGGTAATCCGTATTTGAA (site GGCGATCCTTT),0.00507
19,GGCCATCCATGGACCGGTTTTCCCGGTAATCCGTATTTGAA (site GGCTATCCTTT),0.0589

row,Sequence,recombinant UMI read abundance (log10)
1,GGCCCCCCATGGACCGGTTTTCCCGGTAATCCGTATTTGTT (site GGCCACCCTAA),0.0272
2,GGCCCCCCATGGACCGGTTTTCCCGGTAATCCGTATTTGTT (site GGCCCCCCTAA),0.0352
3,GGCCCCCCATGGACCGGTTTTCCCGGTAATCCGTATTTGTT (site GGCCGCCCTAA),0.0281
4,GGCCCCCCATGGACCGGTTTTCCCGGTAATCCGTATTTGTT (site GGCCTCCCTAA),0.0156
5,GGCCTAGCATGGACCGGTTTTCCCGGTAATCCGTATTTGTT (site AGCCTAGCTAA),0
6,GGCCTAGCATGGACCGGTTTTCCCGGTAATCCGTATTTGTT (site CGCCTAGCTAA),0.0146
7,GGCCTAGCATGGACCGGTTTTCCCGGTAATCCGTATTTGTT (site GGCCTAGCTAA),0.00233
8,GGCCTAGCATGGACCGGTTTTCCCGGTAATCCGTATTTGTT (site TGCCTAGCTAA),0.0108
9,GGCGATACATGGACCGGTTTTCCCGGTAATCCGTATTTGCT (site GGCGATACTAG),1.5
10,GGCGCTACATGGACCGGTTTTCCCGGTAATCCGTATTTGAT (site GGCGCTACTAT),0.866
11,GGCGGCTCATGGACCGGTTTTCCCGGTAATCCGTATTTGTG (site GGCGGCTCTCA),1.23
12,GGCGTGGCATGGACCGGTTTTCCCGGTAATCCGTATTTGGT (site GGAGTGGCTAC),0.00572
13,GGCGTGGCATGGACCGGTTTTCCCGGTAATCCGTATTTGGT (site GGCGTGGCTAC),0.511
14,GGCGTGGCATGGACCGGTTTTCCCGGTAATCCGTATTTGGT (site GGGGTGGCTAC),0.00519
15,GGCGTGGCATGGACCGGTTTTCCCGGTAATCCGTATTTGGT (site GGTGTGGCTAC),0.00854
16,GGCTAGACATGGACCGGTTTTCCCGGTAATCCGTATTTGCC (site GGATAGACTGG),0
17,GGCTAGACATGGACCGGTTTTCCCGGTAATCCGTATTTGCC (site GGCTAGACTGG),0.563
18,GGCTAGACATGGACCGGTTTTCCCGGTAATCCGTATTTGCC (site GGGTAGACTGG),0
19,GGCTAGACATGGACCGGTTTTCCCGGTAATCCGTATTTGCC (site GGTTAGACTGG),0

row,Sequence,recombinant UMI read abundance (log10)
1,GGCTAGACATGGACCGGTTTTCCCGGTAATCCGTATTTGTG (site GGCTAGACTCA),0.659
2,GGCTATCCATGGACCGGTTTTCCCGGTAATCCGTATTTGAA (site GGCAATCCTTT),0.00767
3,GGCTATCCATGGACCGGTTTTCCCGGTAATCCGTATTTGAA (site GGCCATCCTTT),0.0272
4,GGCTATCCATGGACCGGTTTTCCCGGTAATCCGTATTTGAA (site GGCGATCCTTT),0.0136
5,GGCTATCCATGGACCGGTTTTCCCGGTAATCCGTATTTGAA (site GGCTATCCTTT),0.133
6,GGCTCCTCATGGACCGGTTTTCCCGGTAATCCGTATTTGTA (site GGCTCCTCTTA),1.84
7,GGCTGGCCATGGACCGGTTTTCCCGGTAATCCGTATTTGAT (site GGCTGGCCTAT),0.0261
8,GGGAAAACATGGACCGGTTTTCCCGGTAATCCGTATTTGCT (site GAGAAAACTAG),0
9,GGGAAAACATGGACCGGTTTTCCCGGTAATCCGTATTTGCT (site GCGAAAACTAG),0.0308
10,GGGAAAACATGGACCGGTTTTCCCGGTAATCCGTATTTGCT (site GGGAAAACTAG),0
11,GGGAAAACATGGACCGGTTTTCCCGGTAATCCGTATTTGCT (site GTGAAAACTAG),0
12,GGGAAGACATGGACCGGTTTTCCCGGTAATCCGTATTTGCA (site AGGAAGACTTG),0.813
13,GGGAAGACATGGACCGGTTTTCCCGGTAATCCGTATTTGCA (site CGGAAGACTTG),0
14,GGGAAGACATGGACCGGTTTTCCCGGTAATCCGTATTTGCA (site GGGAAGACTTG),1.96
15,GGGAAGACATGGACCGGTTTTCCCGGTAATCCGTATTTGCA (site TGGAAGACTTG),1.19
16,GGGAAGACATGGACCGGTTTTCCCGGTAATCCGTATTTGCT (site AGGAAGACTTG),0
17,GGGAAGACATGGACCGGTTTTCCCGGTAATCCGTATTTGCT (site GGGAAGACTAG),1.69
18,GGGAATACATGGACCGGTTTTCCCGGTAATCCGTATTTGAG (site GGGAATACTCT),1.35
19,GGGAATCCATGGACCGGTTTTCCCGGTAATCCGTATTTGTC (site CGGAATCCTAA),0.00512
